# Assay results from patent US20180250230A1, “POLYMERS AND MICROSPHERES” (BIOCOMPATIBLES UK LIMITED, priority 2015, published 2018).
# Test: Elution of dyes from loaded microspheres in PBS
# Format: physicochemical
# Conditions: from APTA43 microspheres; 1 ml in 200 mL PBS; initial loading 8.6 umols per mL of microspheres
# Experimental: Microspheres of each polymer formulation were loaded with equal quantities of each dye. 1 ml samples of dye-loaded microspheres were added to 200 mL of PBS in an amber jar. The microsphere suspensions were rolled to provide continuous mixing. At each time point the eluent was sampled and assayed by UV/Vis spectrophotmetery as above. The volume of sampled eluent was replaced with fresh PBS to maintain the elution volume. FIG. 5 illustrates the elution profiles of each dye from APTA43 microspheres.
row,SMILES,initial loaded amount released within 60 minutes
1,"O.O=S(=O)([O-])c1cc(S(=O)(=O)[O-])c2ccc3c(S(=O)(=O)[O-])cc(S(=O)(=O)[O-])c4ccc1c2c43.[Na+].[Na+].[Na+].[Na+] [Formulation P4, 1,3,6,8-pyrenetetrasulfonic acid hydrate tetrasodium salt]",approximately 3%
2,"O=S(=O)([O-])c1ccc2ccc3cccc4ccc1c2c34.[Na+] [Formulation P1, 1-pyrenesulfonic acid sodium salt]",80%
3,"O=S(=O)([O-])c1cc(S(=O)(=O)[O-])c2ccc3c(O)cc(O)c4ccc1c2c43.[Na+].[Na+] [Formulation P2, 6,8-dihydroxypyrene-1,3-disulfonic acid disodium salt]",9%
4,"O=S(=O)([O-])c1cc(O)c2ccc3c(S(=O)(=O)[O-])cc(S(=O)(=O)[O-])c4ccc1c2c34.[Na+].[Na+].[Na+] [Formulation P3, 8-hydroxypyrene-1,3,6-trisulfonic acid trisodium salt]",approximately 3%
